# Source: patent US5478928A, “2',3'-dideoxy-4'-thioribonucleosides and synthetic precursors thereof” (priority 1993, dated 1995)
# Read-outs that look alike come from different tables or passages of the source.
# Assays:
# [1] = test system: CEM cells infected with HIV virus (HIV-1 isolates IIIB and/or RF); assay: Inhibition of HIV cytopathogenic effects (CPE) in CEM cells (MTT); assay type: cell-based; settings: for SI (selectivity index): TC25 divided by the ID50; for TAI (total antiviral index): area between the cytotoxicity and the antiviral curves; for IC50: Human immunodeficiency virus 1, IIIB, CCRF-CEM, read-out: IC50 (minimum drug concentration that inhibited CPE by 50%)
# Procedure: (§1) Compounds of the present invention are readily screened for anti-HIV activity by the following standard screening assay in CEM and MT2 cells.
# (§2) 1. Compound dilution and delivery to the plates. Test compounds are solubilized in the appropriate vehicle such as distilled water, DMSO, methyl alcohol, or other vehicle. The maximum solubility is determined as appropriate. Latex gloves, lab coats, and masks are used during all phases of the handling process to prevent exposure to potentially harmful agents. At highest solubility, the test compound is prepared and stored at -20° C. until used by the screening laboratory. The first dilution of each compound is made tube with medium to yield a concentration two-fold that of the highest test concentration. Sterile titer tubes are then used to make serial one half log dilutions of each compound. Following dilution, the diluted compound is added to the appropriate well of a 96-well microtiter plate. Up to 12 dilutions can be conveniently assayed in triplicate on a single plate with all appropriate controls, including cell control, virus control, toxicity control, drug color control, medium control and plastic control. When testing includes only six dilutions, two drugs can be assayed on a single microtiter plate. The test compounds are added to the plate in a final volume of 100 microliters.
# (§3) 2. Cells and virus. During the time that the test compound dilutions are prepared, cells are washed and counted. Viability is monitored by trypan blue dye exclusion and assays are not performed if the viability falls below 90%. Cells are maintained in an exponential growth phase and are split 1:2 on the day prior to assay to assure adequate growth rate. For the primary screen, the cell line utilized is CEM cells. […] However, both cell lines are available and being used at all times and can be substituted or used in addition to CEM cells as requested. Unless otherwise indicated, the medium is phenol red-free RPMI 1640 with 10% heat-inactivated fetal calf serum (FBS), glutamine and antibiotics. Cells are propagated at 37° C. in an atmosphere of 5% CO2 in air. The virus employed for this work is HIV-1 isolates IIIB and/or RF prepared by the acute infection process as follows: Briefly, virus infected cells are pelleted on a daily basis beginning at three days postinfection until the virus has killed all of the cells in the culture. Reverse transcriptase activity and p24 ELISA are used to identify pools with the greatest amount of virus. These 24-hour harvests are pooled, filtered and frozen at -90° C. Prior to use in the assay the virus is titered on all available cell lines in order to determine the amount of virus required in the assay. In general, pools produced by the acute virus method require the addition of one microliter of infectious virus per well resulting in the screening of drugs on a multiplicity of infection of 0.01. In this manner enough virus is prepared and frozen to complete over one thousand microtiter plates, allowing the testing of up to two thousand compounds from a single stock. […] Virus infection of the CEM cells is carried in a bulk infection process. The appropriate number of cells required to complete the assay are mixed with infectious virus in a conical centrifuge tube in a small total volume of 1-2 milliliters. Following a one hour incubation the infected cells are brought to the appropriate final concentration of 5×10^4 cells per milliliter with fresh tissue culture medium and 100 microliters are added to the appropriate experimental and virus control wells. Uninfected cells at the same concentration are plated for the toxicity controls and for the cell controls.
# (§4) 3. Evaluation of CPE-inhibition. Following the addition of cells and test compounds to the microtiter plate, the plate is incubated for 6 days at 37° C.
# [2] = test system: CEM cells; assay: Cytotoxicity (cell viability) in CEM cells
# Procedure: as §1, §2, §3, §4
# [3] = test system: MT-2 cells; assay: Cytotoxicity (cell viability) in MT-2 cells
# Procedure: as §1, §2, §3, §4
# [4] = test system: MT-2 cells infected with HIV virus (HIV-1 isolates IIIB and/or RF); assay: Inhibition of HIV cytopathogenic effects (CPE) in MT-2 cells (MTT); assay type: cell-based; settings: for IC50: Human immunodeficiency virus 1, IIIB; for SI (selectivity index): TC25 divided by the ID50; for TAI (total antiviral index): area between the cytotoxicity and the antiviral curves
# Procedure: as §1, §2, §3, §4
# [5] = test system: AIDS; settings: cited from earlier work
# [6] = CEM cells, means of several experiments
# [7] = MT-2 cells, means of several experiments
# [8] = MT2, MT-2 cells, means of several experiments, read-out: IC50 (minimum drug concentration that inhibited CPE by 50%)
Compound,SI (selectivity index) ([1]; CEM cells),TAI (total antiviral index) ([1]; CEM cells),"IC50 [1, 6] [µg/mL]","TC25 (minimum drug concentration that reduced cell viability by 25%) [2, 6] [µg/mL]","TC25 (minimum drug concentration that reduced cell viability by 25%) [3, 7] [µg/mL]",TAI (total antiviral index) ([4]; MT-2 cells),other results
Cc1cn([C@H]2C[C@H](N=[N+]=[N-])[C@@H](CO)S2)c(=O)[nH]c1=O,> 222.02,> 60.15,0.45,> 100,–,–,–
"Nc1nc2c(ncn2[C@H]2CC[C@@H](CO)S2)c(=O)[nH]1 [4'-thio-2',3'-dideoxy-guanosine, 4'-Thio-2',3'-dideoxy-guanosine]",–,0.0,–,> 100,> 200,11.0,"IC50 [4, 8]: 98 µg/mL; SI (selectivity index) ([4]; MT-2 cells): 1.6"
"Nc1ccn([C@H]2CC[C@@H](CO)S2)c(=O)n1 [4'-thio-2',3'-dideoxycytidine, 4'-Thio-2',3'-dideoxycytidine]",> 100,> 65,1,> 100,–,–,–
"OC[C@@H]1CC[C@H](n2cnc3c(O)ncnc32)S1 [4'-thio-2',3'-dideoxyinosine, 4'-Thio-2',3'-dideoxyinosine]",–,–,–,–,> 100,> 4.0,–
"Cc1cn([C@H]2CC[C@@H](CO)S2)c(=O)[nH]c1=O [4'-thio-3'-deoxythymidine, 4'-Thio-3'-deoxythymidine]",–,4.0,–,> 150,> 100,> 4.0,–
"Nc1ncnc2c1ncn2[C@H]1CC[C@@H](CO)S1 [4-'-thio-2'3'-dideoxyadenosine, 4'-Thio-2',3'-dideoxyadenosine]",–,–,–,–,> 100,> 17,"IC50 [4, 8]: 80 µg/mL; SI (selectivity index) ([4]; MT-2 cells): 1.3"
"Nc1nc(N)c2ncn([C@H]3CC[C@@H](CO)S3)c2n1 [9-(4-Thio-2,3-dideoxy-D-ribofuranosyl)-2,6-diaminopurine]",2.6,21.0,37,97.0,–,–,–
"Nc1nc(Cl)nc2c1ncn2[C@H]1CC[C@@H](CO)S1 [9-(4-Thio-2,3-dideoxy-D-ribofuranosyl)-2-chloro-6-aminopurine]",–,–,–,5.74,–,–,–
"OC[C@@H]1CC[C@H](n2cnc3c(Cl)ncnc32)S1 [9-(4-Thio-2,3-dideoxy-D-ribofuranosyl)-6-chloropurine]",–,–,–,–,21,0.0,–
"Cc1cn([C@H]2C[C@H](N=[N+]=[N-])[C@@H](CO)O2)c(=O)[nH]c1=O [AZT, 3'-azido-3'-deoxythymidine, reference compound]",> 313,> 93,–,> 10,9.3,> 82,"IC50 [1]: < 0.03 µg/mL; potency for the treatment of AIDS ([5]; background): particularly potent; side effects ([5]; background): undesirable side effects; IC50 ([4]; MT2, read-out: IC50 (minimum drug concentration that inhibited CPE by 50%)): 0.14 µg/mL; SI (selectivity index) ([4]; MT-2 cells): > 160"
"Nc1ccn([C@H]2CC[C@@H](CO)O2)c(=O)n1 [DDC, dideoxycytidine, reference compound]",120,> 63,0.05,–,–,> 52,"side effects [5]: undesirable side effects; TC25 (minimum drug concentration that reduced cell viability by 25%) ([3]; human): > 9.8 µg/mL; IC50 [4, 8]: 0.44 µg/mL; TC25 (minimum drug concentration that reduced cell viability by 25%) ([2]; human): 5.3 µg/mL"
"CNc1ncnc2c1ncn2[C@H]1CC[C@@H](CO)S1 [N^6 -Methyl-4'-thio-2',3'-dideoxyadenosine]",–,–,–,–,> 100,1.0,–
O=c1[nH]cnc2c1ncn2[C@H]1CC[C@@H](CO)O1 [dideoxyinosine],–,–,–,–,–,–,side effects [5]: undesirable side effects
